Reference: patent publication US12636284B2, “Compositions for use in the prevention and/or treatment of intellectual disability and neurodegenerative diseases in a subject with down syndrome” (UNIVERSITA' DEGLI STUDI DI ROMA “LA SAPIENZA”, priority 2021, dated 2026)

How the values were obtained:
[1] = Body weight, body surface area and body mass index during treatment; assay type: in vivo, mouse; details: Ts2Cje mice; sitagliptin 5 mM intranasal, 21 days
Procedure: (§1) Finally, animals were sacrificed using cervical dislocation.
(§2) Furthermore, mice were measured at the beginning and at the end of the treatment to evaluate the length in centimeters (cm). For calculating the body mass surface, the DuBois equation was used: body surface area (m^2)=0.007184×weight ([…])×height ([…]). The body mass index was calculated as the ratio between weight and BSA (gr/m^2). At the end of the treatment, the glucose tolerance test (GTT) was carried out on the four experimental groups. After a fasting period of 6 hours, the animals' basal blood glucose was assessed with a small blood sample from the tail (T0). Subsequently, the same animals were treated with a glucose solution (10%, intraperitoneal injection) and blood glucose was measured with a glucometer (lineD ORO, Bioseven) after 30-60-90-120 minutes.

[2] = Glucose tolerance test (GTT) at end of treatment; assay type: in vivo, mouse; details: Ts2Cje mice; sitagliptin 5 mM intranasal, 21 days; 6 h fasting, i.p. glucose 10%
Procedure: as §1, §2

DYRK1A protein = DYRK1A protein levels in primary hippocampal neurons isolated from Ts2Cje mice; assay type: cell-based, mouse; details: 1, 5, 10 μM for 24 hours, vs untreated Ts2Cje
Procedure: For Western blots, 20 μg of proteins from the hippocampus of mice belonging to the four experimental groups were separated by 4-15% SDS-PAGE Criterion™ TGX (Tris-Glyicine eXtended) Stain-Free™ (Bio-rad, Hercules, CAUSE). This type of gel allows a rapid acquisition of the protein run in the ultraviolet (UV) by Chemidoc™ MP imaging systems (Bio-rad, Hercules, CA, USA). Therefore, the gel, once the image has been acquired, represents the total of the loaded proteins (Total Load), which will then be used to normalize the specific proteins to be examined. After electrophoresis and gel imaging, proteins are transferred via the semi-dry TransBlot Turbo apparatus (Bio-Rad Laboratories) onto nitrocellulose membranes (Bio-Rad, Hercules, CA, USA). Nitrocellulose membranes are blocked with 3% bovine serum albumin (BSA) in a solution of Tween 20-TBS and incubated overnight at 4° C. using specific primary antibodies: p(T216)-GSK3B (1:1000, Santa Cruz, #sc-135653), p(S9)-GSK3β (1:1000, Cell Signaling, #5558S), GSK3β (1:1000 Abcam, #93926) and DYRK1A (1:1000, Cell Signaling, #8765S), MAPK44/42 (1:1000, Cell Signaling, #9102), p(Thr202/Tyr204)-MAPK44/42 (1 1000, Cell Signaling, #9101), Akt (1:2000, Bio-Rad, # vma00253K), p(S473) Akt (1:1000, Cell Signaling, #4060S). After three washes with a T-TBS buffer solution, membranes were incubated for 1 hour at room temperature with the secondary antibodies. Secondary antibodies with peroxidase activity are anti-mouse or anti-rabbit (1:5000, Bio-rad, Hercules, CA, USA). Membranes were developed using Clarity Enhanced Chemiluminescence (ECL), a chemiluminescent substrate (Bio-rad, Hercules, CA, USA) and acquired with Chemidoc Mp (Bio-rad, Hercules, CA, USA). Finally, the results obtained were analyzed using the ImageLab program (Bio-rad, Hercules, CA, USA).
In order to isolate primary hippocampal neurons, hippocampi from Ts and euploid mice were mechanically dissociated in PBS (with Ca^2+ and Mg^2−) and centrifuged (3 minutes, 1100 rpm, 25° C.). […]

N[C@@H](CC(=O)N1CCn2c(nnc2C(F)(F)F)C1)Cc1cc(F)c(F)cc1F [sitagliptin, (R)-4-oxo-4-[3-(trifluoromethyl)-5,6-dihydro[1,2,4]triazole[4,3-a]pyrazin-7(8H)-yl]-1-(2,4,5-trifluorophenyl)butan-2-amine]
phenotypic or morphometric changes (weight, BSA, BMI) [1]: no phenotypic or morphometric changes | changes in glucose metabolism indices (GTT) [2]: no phenotypic or morphometric changes or changes in glucose metabolism indices | levels of the DYRK1A protein in Ts2Cje neurons (DYRK1A protein): significant reduction
